From ChEMBL document CHEMBL3813616, “Discovery of novel 7-azaindoles as PDK1 inhibitors” (Bioorg Med Chem Lett, 2016)

Assays:
[1] = target: cAMP-dependent protein kinase catalytic subunit alpha (Homo sapiens) (UniProt P17612); test: Inhibition of human PKA alpha (2 to 351 residues) assessed as enzyme activity at 1 uM using 33P ATP by radioactive filter binding assay; parameters: scale not given: the % may be the effect or the level left
[2] = target: T1, Inhibitor of nuclear factor kappa-B kinase subunit beta (Homo sapiens) (UniProt O14920); test: Inhibition of human IKKbeta (1 to 736 residues) assessed as enzyme activity at 1 uM using 33P ATP by radioactive filter binding assay; parameters: scale not given: the % may be the effect or the level left
T1 sequence (whole entry): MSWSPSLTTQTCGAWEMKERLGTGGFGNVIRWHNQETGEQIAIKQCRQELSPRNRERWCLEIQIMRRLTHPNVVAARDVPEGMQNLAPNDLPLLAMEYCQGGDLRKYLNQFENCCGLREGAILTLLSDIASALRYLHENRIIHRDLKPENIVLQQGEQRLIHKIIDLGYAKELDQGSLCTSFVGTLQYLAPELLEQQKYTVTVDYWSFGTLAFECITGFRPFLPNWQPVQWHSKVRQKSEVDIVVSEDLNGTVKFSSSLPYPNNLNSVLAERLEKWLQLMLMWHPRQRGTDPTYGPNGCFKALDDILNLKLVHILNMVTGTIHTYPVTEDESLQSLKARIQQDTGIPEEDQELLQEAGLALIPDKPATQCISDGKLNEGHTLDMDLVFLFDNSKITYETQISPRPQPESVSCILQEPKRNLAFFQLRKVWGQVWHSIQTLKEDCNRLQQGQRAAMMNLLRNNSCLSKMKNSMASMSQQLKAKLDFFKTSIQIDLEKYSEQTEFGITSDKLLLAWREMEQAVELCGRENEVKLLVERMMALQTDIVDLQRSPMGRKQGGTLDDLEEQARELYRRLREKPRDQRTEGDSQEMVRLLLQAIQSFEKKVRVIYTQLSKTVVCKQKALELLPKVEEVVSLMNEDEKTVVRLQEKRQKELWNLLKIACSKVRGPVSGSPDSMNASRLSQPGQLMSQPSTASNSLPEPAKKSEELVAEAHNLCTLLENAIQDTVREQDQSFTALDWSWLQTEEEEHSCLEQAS

[3] = target: Mitogen-activated protein kinase 3 (Homo sapiens) (UniProt P27361); test: Inhibition of human MAPK3 (2 to 544 residues) assessed as enzyme activity at 1 uM using 33P ATP by radioactive filter binding assay; parameters: scale not given: the % may be the effect or the level left
Chain of Mitogen-activated protein kinase 3 (Homo sapiens) (P27361 whole entry, the tested form may be a part): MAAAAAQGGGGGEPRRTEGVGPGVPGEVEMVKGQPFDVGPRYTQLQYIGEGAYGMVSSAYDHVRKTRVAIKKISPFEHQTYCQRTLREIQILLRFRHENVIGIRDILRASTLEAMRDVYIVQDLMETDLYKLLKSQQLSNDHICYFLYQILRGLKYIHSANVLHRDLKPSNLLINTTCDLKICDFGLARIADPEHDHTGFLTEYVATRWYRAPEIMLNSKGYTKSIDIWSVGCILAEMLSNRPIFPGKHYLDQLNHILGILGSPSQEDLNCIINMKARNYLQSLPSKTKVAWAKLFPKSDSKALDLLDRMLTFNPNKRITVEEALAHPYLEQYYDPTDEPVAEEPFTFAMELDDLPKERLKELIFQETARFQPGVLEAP

[4] = target: Serine/threonine-protein kinase pim-2 (Homo sapiens) (UniProt Q9P1W9); test: Inhibition of human PIM2 (2 to 334 residues) assessed as enzyme activity at 1 uM using 33P ATP by radioactive filter binding assay; parameters: scale not given: the % may be the effect or the level left
Chain of Serine/threonine-protein kinase pim-2 (Homo sapiens) (Q9P1W9 whole entry, looked up, the tested form may be a part): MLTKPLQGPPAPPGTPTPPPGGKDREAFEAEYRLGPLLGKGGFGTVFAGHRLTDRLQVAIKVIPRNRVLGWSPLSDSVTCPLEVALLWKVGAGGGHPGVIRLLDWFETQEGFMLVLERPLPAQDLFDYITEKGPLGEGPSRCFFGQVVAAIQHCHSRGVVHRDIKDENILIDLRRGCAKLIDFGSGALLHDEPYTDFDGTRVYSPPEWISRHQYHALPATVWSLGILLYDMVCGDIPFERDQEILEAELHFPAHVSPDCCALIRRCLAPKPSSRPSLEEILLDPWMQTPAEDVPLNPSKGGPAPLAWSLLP

[5] = target: RAC-alpha serine/threonine-protein kinase (Homo sapiens) (UniProt P31749); test: Inhibition of human PKBalpha (118 to 480 residues) assessed as enzyme activity at 1 uM using 33P ATP by radioactive filter binding assay; parameters: scale not given: the % may be the effect or the level left
Chain of RAC-alpha serine/threonine-protein kinase (Homo sapiens) (P31749 whole entry, the tested form may be a part): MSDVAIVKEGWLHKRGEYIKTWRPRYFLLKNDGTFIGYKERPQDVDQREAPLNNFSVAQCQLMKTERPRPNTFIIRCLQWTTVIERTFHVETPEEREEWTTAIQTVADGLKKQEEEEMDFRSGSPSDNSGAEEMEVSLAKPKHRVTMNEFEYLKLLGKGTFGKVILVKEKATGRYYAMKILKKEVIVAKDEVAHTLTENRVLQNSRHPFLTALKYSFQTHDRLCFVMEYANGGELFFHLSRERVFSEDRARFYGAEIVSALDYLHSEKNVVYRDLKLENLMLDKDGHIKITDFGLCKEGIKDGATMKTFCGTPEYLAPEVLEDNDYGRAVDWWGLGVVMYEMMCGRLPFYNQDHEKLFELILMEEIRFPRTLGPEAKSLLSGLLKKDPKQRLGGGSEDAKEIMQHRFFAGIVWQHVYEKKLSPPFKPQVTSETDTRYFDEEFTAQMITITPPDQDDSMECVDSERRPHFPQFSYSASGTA

[6] = target: Serine/threonine-protein kinase pim-3 (Homo sapiens) (UniProt Q86V86); test: Inhibition of human PIM3 (2 to 326 residues) assessed as enzyme activity at 1 uM using 33P ATP by radioactive filter binding assay; parameters: scale not given: the % may be the effect or the level left
[7] = target: T2, Mitogen-activated protein kinase 12 (Homo sapiens) (UniProt P53778); test: Inhibition of SAPK3 (unknown origin) assessed as enzyme activity at 1 uM using 33P ATP by radioactive filter binding assay; parameters: scale not given: the % may be the effect or the level left
T2 sequence (whole entry): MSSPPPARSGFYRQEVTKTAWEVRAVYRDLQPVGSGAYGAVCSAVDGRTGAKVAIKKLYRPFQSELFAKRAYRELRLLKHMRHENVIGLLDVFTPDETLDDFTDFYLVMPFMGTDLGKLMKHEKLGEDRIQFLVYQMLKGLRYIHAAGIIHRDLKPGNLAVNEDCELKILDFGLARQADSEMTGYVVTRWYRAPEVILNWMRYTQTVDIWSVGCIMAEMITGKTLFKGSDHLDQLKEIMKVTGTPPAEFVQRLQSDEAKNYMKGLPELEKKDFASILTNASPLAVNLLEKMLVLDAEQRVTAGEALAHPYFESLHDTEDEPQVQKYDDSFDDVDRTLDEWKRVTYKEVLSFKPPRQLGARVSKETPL

[8] = target: Phosphatidylinositol 4,5-bisphosphate 3-kinase catalytic subunit alpha isoform (Homo sapiens, UniProt P42336); test: Inhibition of PI3K alpha (unknown origin)
Chain of Phosphatidylinositol 4,5-bisphosphate 3-kinase catalytic subunit alpha isoform (P42336 whole entry, the tested form may be a part, canonical isoform): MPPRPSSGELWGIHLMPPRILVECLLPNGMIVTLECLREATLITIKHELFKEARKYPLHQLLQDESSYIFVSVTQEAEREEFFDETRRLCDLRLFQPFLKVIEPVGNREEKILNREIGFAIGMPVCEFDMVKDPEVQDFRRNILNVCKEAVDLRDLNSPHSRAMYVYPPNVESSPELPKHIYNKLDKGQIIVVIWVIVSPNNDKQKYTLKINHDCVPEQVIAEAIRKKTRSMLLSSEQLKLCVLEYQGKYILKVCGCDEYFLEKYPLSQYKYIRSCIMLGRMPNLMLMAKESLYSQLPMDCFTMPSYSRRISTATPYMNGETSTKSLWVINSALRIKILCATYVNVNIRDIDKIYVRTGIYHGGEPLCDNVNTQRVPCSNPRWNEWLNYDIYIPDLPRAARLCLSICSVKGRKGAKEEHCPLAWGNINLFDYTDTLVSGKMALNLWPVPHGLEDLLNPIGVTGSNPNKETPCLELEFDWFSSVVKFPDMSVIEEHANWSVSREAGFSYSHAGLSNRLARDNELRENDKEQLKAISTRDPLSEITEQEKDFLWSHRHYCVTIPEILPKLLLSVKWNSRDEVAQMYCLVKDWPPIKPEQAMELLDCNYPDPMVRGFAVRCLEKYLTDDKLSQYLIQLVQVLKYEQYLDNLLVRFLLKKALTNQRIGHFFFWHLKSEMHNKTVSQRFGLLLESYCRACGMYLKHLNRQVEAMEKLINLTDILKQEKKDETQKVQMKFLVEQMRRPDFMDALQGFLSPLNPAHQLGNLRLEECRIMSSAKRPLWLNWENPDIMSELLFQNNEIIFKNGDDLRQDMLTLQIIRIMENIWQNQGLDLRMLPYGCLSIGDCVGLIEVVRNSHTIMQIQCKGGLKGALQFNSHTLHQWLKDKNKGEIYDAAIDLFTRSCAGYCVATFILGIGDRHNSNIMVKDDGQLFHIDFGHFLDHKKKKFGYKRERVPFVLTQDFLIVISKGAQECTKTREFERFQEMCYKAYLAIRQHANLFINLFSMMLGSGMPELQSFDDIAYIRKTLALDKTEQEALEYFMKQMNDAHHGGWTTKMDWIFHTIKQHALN

[9] = target: Insulin receptor (Homo sapiens) (UniProt P06213); test: Inhibition of human IR (1001 to 1382 residues) assessed as enzyme activity at 1 uM using 33P ATP by radioactive filter binding assay; parameters: scale not given: the % may be the effect or the level left
Chain of Insulin receptor (Homo sapiens) (P06213 28-758 limits assumed): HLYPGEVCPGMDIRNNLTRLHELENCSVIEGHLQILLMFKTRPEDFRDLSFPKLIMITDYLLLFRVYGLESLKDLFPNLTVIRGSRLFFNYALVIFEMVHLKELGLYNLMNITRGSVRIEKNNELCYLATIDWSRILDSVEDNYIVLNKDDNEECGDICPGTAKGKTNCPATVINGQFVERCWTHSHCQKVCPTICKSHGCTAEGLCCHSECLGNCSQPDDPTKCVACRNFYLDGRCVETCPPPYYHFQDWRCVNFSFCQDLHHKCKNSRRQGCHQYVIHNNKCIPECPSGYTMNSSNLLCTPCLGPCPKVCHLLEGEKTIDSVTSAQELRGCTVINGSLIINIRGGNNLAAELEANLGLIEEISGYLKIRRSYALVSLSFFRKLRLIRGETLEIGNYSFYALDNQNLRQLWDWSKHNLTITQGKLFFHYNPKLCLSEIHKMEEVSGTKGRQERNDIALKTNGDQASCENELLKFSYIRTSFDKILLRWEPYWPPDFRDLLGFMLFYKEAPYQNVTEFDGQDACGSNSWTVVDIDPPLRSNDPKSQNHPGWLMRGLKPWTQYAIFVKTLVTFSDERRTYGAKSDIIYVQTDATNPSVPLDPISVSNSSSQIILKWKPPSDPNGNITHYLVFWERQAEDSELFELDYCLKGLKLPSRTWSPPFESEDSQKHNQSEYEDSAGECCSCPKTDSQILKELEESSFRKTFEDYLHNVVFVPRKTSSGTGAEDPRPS
Chain of Insulin receptor (Homo sapiens) (P06213 763-1382 limits assumed): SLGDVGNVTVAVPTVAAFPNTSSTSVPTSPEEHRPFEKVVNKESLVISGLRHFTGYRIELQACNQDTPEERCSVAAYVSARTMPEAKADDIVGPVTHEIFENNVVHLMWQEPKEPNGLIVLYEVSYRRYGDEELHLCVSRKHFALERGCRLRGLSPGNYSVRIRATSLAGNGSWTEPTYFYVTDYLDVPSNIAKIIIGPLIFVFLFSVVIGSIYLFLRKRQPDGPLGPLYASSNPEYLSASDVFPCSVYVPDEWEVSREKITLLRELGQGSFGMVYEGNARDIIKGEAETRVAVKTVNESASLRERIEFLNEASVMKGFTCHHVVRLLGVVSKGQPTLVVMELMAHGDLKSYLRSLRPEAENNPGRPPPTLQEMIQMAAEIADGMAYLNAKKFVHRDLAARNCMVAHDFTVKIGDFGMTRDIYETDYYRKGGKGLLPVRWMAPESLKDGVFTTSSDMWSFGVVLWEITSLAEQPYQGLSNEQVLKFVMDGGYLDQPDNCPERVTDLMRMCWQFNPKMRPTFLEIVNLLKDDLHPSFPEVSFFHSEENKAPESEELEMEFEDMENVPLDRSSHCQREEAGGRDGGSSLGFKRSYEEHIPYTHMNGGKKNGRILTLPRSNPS

[10] = target: T3, Ephrin type-B receptor 3 (Homo sapiens) (UniProt P54753); test: Inhibition of human EPHB3 (561 to 998 residues) assessed as enzyme activity at 1 uM using 33P ATP by radioactive filter binding assay; parameters: scale not given: the % may be the effect or the level left
T3 sequence (whole entry): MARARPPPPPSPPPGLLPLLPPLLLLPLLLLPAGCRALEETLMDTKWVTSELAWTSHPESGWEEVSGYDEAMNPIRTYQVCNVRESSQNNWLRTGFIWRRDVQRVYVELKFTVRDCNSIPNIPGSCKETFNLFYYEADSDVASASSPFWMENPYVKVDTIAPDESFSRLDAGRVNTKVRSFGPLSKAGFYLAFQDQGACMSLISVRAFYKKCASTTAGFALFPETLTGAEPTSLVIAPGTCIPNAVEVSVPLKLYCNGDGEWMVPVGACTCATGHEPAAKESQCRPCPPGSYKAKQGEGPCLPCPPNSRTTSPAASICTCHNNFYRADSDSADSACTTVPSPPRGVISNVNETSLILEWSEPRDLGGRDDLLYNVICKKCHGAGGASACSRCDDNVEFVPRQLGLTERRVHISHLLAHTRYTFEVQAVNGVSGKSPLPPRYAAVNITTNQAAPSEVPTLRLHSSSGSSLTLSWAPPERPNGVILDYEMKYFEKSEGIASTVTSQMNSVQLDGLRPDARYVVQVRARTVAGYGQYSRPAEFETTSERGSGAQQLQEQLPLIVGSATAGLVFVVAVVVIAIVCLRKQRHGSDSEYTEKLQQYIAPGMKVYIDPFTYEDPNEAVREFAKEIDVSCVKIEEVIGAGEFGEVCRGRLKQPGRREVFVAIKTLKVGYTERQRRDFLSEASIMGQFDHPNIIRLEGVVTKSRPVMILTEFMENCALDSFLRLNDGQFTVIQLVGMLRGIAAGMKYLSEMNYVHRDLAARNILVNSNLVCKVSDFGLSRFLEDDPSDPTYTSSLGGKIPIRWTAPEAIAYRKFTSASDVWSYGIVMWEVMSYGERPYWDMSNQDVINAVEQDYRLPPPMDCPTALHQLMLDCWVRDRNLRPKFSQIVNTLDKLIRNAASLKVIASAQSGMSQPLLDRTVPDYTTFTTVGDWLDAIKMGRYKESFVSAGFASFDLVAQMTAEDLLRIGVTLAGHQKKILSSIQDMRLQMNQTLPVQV

| Activity [1] | Activity [2] | Activity [3] | Activity [4] | Activity [5] | Activity [6] | Activity [7] | IC50 [8] | Activity [9] | Activity [10] | SMILES |
| --- | --- | --- | --- | --- | --- | --- | --- | --- | --- | --- |
| -54% | -27% | -54% | -25% | -23% | -70% | -57% | > 10 µM |  |  | CCCCc1cc(-c2c[nH]c3ncccc23)nc(N)n1 |
| -42% | -63% | -97% | -98% | -9% | -98% | -42% | 5.5 µM | -28% | -25% | CCCCc1cc(-c2c[nH]c3ncc(-c4cnn(C5CCNCC5)c4)cc23)nc(N)n1 |
| -38% | -46% | -95% | -87% | -10% | -91% | -45% |  | -8% | -19% | CCc1cc(-c2c[nH]c3ncc(-c4cnn(C5CCNCC5)c4)cc23)nc(N)n1 |
| -66% | -45% | -77% | -39% | -23% | -61% | -59% | > 10 µM | -6% | 28% | Nc1nccc(-c2c[nH]c3ncccc23)n1 [MERIOLIN 1] |
